In patent US8148392B2, “2-indolyl imidazo [4,5-d] phenanthroline derivatives and their use in the treatment of cancer” (Lorus Therapeutics Inc., priority 2005, dated 2012):
Read-outs that look alike come from different tables or passages of the source. Each block holds one molecule with its values, some of them ahead of it.

Legend:
KLF4 [1] = test: KLF4 gene expression by RT-PCR, CCRF-CEM; format: cell-based, human; settings: relative to vehicle control as 1
Source text: (§1) Gene expression levels of KLF4, induced by compounds of Formula I, were also examined on various cancer cell types by RT-PCR. Fold changes in KLF4 in compound-treated cells were expressed relative to KLF4 expression in vehicle control-treated cells of respective cell type as “1”. […] Additionally, xenografts of MDA-MB-435 implanted into mammary fat pads of female SCID mice have shown immunohistochemical staining consistent with melanocytic origin (Ellison G, Klinowska T, Westwood R F, Docter E, French T, Fox J C. (2002) Mol Pathol. 55(5): 294-299). The breast cancer cell line MDA-MB-435 may be expected to function differently than the other breast cancer cell lines.

KLF4 [2] = test: KLF4 gene expression by RT-PCR, H-460; format: cell-based, human; settings: H-460, relative to vehicle control as 1
Source text: as §1
Expressions of KLF2, 4 and 6 genes in H-460 cells, treated with vehicle control or 2.5 μM compound 3 or compound 7, were measured by RT-PCR. Gene expression was presented relative to respective gene expression in vehicle control-treated group as “1”.

KLF4 [3] = test: KLF4 gene expression by RT-PCR, MOLT-4; format: cell-based, human; settings: MOLT-4, relative to vehicle control as 1
Source text: as §1

KLF4 [4] = test: KLF4 gene expression by RT-PCR, HCT-116; format: cell-based, human; settings: HCT-116, relative to vehicle control as 1
Source text: as §1

H-460 lung cancer cells = test: XTT cell proliferation assay, H-460; format: cell-based, human; settings: read-out: IC50 (cell growth inhibition)
Method: (§2) Cell growth inhibition IC50 (μM) by compounds of Formula I was tested on various cancer cell types by XTT cell proliferation assay. The growth inhibitory effects of the compounds of Formula I as shown below for the melanoma cell line SK-MEL-2 were reproducible by Lorus Therapeutics Inc.

[5] = test system: human colon carcinoma HT-29 cells; test: XTT cell proliferation assay, HT-29; format: cell-based
How it was run: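 HT-29 cells in McCoy's 5A with 10% FBS, 37° C., 5% CO2, exposed to varying compound concentrations for 6-7 days. Viable cells quantified by XTT reduction to formazan; growth inhibition expressed as IC50 (μM).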

[6] = test system: MDA-MB-231 breast cancer cells; test: XTT cell proliferation assay, MDA-MB-231; format: cell-based, human; settings: read-out: IC50 (cell growth inhibition)
Method: as §2

CCRF-CEM leukemia cells = test: XTT cell proliferation assay, CCRF-CEM; format: cell-based, human; settings: read-out: IC50 (cell growth inhibition)
Method: as §2

[7] = test system: DU-145 prostate cancer cells; test: XTT cell proliferation assay, DU-145; format: cell-based, human; settings: read-out: IC50 (cell growth inhibition)
Method: as §2

MOLT-4 leukemia cells = test: XTT cell proliferation assay, MOLT-4; format: cell-based, human; settings: read-out: IC50 (cell growth inhibition)
Method: as §2

KLF4 [8] = test: KLF4 gene expression by RT-PCR, MDA-MB-231; format: cell-based, human; settings: MDA-MB-231, relative to vehicle control as 1
Source text: as §1

KLF4 [9] = test: KLF4 gene expression by RT-PCR, PC-3; format: cell-based, human; settings: PC-3, relative to vehicle control as 1
Source text: as §1

KLF4 [10] = test: KLF4 gene expression by RT-PCR, MDA-MB-435; format: cell-based, human; settings: MDA-MB-435, relative to vehicle control as 1
Source text: as §1

KLF4 [11] = test: KLF4 gene expression by RT-PCR, DU-145; format: cell-based, human; settings: DU-145, relative to vehicle control as 1
Source text: as §1

SK-MEL-2 melanoma cells = test: XTT cell proliferation assay, SK-MEL-2; format: cell-based, human; settings: read-out: IC50 (cell growth inhibition)
Method: as §2

[12] = test system: MDA-MB-435 breast cancer cells; test: XTT cell proliferation assay, MDA-MB-435; format: cell-based, human; settings: read-out: IC50 (cell growth inhibition)
Method: as §2

[13] = test system: PC-3 prostate cancer cells; test: XTT cell proliferation assay, PC-3; format: cell-based, human; settings: read-out: IC50 (cell growth inhibition)
Method: as §2

KLF4 [14] = test: KLF4 gene expression by RT-PCR, SK-MEL-2; format: cell-based, human; settings: SK-MEL-2, relative to vehicle control as 1
Source text: as §1

[15] = test system: HCT-116 colon cancer cells; test: XTT cell proliferation assay, HCT-116; format: cell-based, human; settings: read-out: IC50 (cell growth inhibition)
Method: as §2

KLF4 [16] = test: KLF4 gene expression by RT-PCR, HT-29; format: cell-based, human; settings: HT-29, relative to vehicle control as 1
Method: (§3) To determine whether compounds of Formula I can chelate zinc in cells, the effect of compound 3 on the expression level of a zinc-regulated gene, metallothionein 1A (MT1A), in human colon carcinoma HT-29 cells, was determined. HT-29 cells, 1×10^6 cells in 10 mL volume of the growth medium were seeded in 100 mm dishes and incubated overnight at 37° C. The medium was removed and replaced with the growth medium containing 35 μM ZnCl2, 1 μM or 4 μM TPEN (NNNN-tetrakis(2-pyridyl-methyl)ethylenediamine), or 1 μM or 4 μM compound 3, or 0.1% DMSO vehicle control. After incubation for 16 hours, the cells were detached by trypsinization, collected by centrifugation and washed once with PBS. Total RNA was extracted by using TRIZOL (Invitrogen, Life Technologies, Carlsbad, Calif.), following manufacturer's instruction, and the level of MT1A mRNA was measured by real time PCR using the comparative CT method as follows. First strand cDNA was synthesized from 200 ng total RNA in Biometra Tpersonal Thermal Cycler (Abgene, UK), using pd(N)6 random hexamer (Amersham Biosciences, Piscataway, N.J.) and SuperScript™ II Reverse Transcriptase kit (Invitrogen) by following manufacturer's protocol. Real-time PCR was performed in ABI Prism 7000 Sequence Detection System (Applied Biosystems Inc., ABI, Foster City, Calif.), using 5 μL of cDNA synthesized by above-mentioned procedure and respective TaqMan® Gene Expression Assays (ABI) by following ABI TaqMan® Universal PCR master mix protocol.
The ability of compounds of Formula I to modulate the mRNA level of a transition metal-regulated tumour suppressor gene was determined in vitro as follows. Compound 3 was tested to determine its ability to increase the expression of zinc-regulated tumour suppressor KLF4 mRNA in colon carcinoma HT-29 cells. […] HT-29 cells were incubated for 16 hours with DMSO as a vehicle control, 35 μM ZnCl2, 1 μM or 4 μM of compound 3, or 1 μM or 4 μM TPEN for 16 hours and mRNA was extracted from the cells as described in Example 19. The expression of KLF4 mRNA was analyzed by real-time polymerase chain reaction using the comparative CT method also as described in Example 19. Compound 3 induced the expression of KLF4 mRNA (approximately 8-fold) in HT-29 cells compared with HT-29 cells treated with vehicle alone (See FIG. 8).
as §1
The change in gene expression of KLF4 upon zinc depletion following compound 3 treatment was determined by RT-PCR as follows. HT-29 cells were treated with 1 μM compound 3 for the indicated time (FIG. 39A) or HT-29 cells were treated with 1 μM compound 3, 35 μM ZnCl2 or compund 3 and ZnCl2 together for 16 hr (FIG. 39B). Total RNA was extracted and gene expression level was determined by RT-PCR.
Fold change in KLF4 gene expression was presented relative to KLF4 expression in non-specific siRNA-transfected cells treated with vehicle control.

[17] = test system: intracellular zinc ions in HT-29 cells; test: Chelation of intracellular zinc in HT-29 cells, Zinquin fluorescence; format: cell-based, human; settings: HT-29 with or without pre-loading with 35 μM ZnCl2, 30 min
Method: To determine the chelation property of compound 3 with intracellular zinc ions, HT-29 cells, with or without pre-loaded with 35 μM ZnCl2 were treated with compound 3, a known zinc chelator TPEN or vehicle control (DMSO), and intracellular free zinc was determined by measuring Zinquin fluorescence as described in the preceding Example (FIG. 37). HT-29 cells (4×10^5 cells/group) were pre-treated with 35 μM ZnCl2 for 20 min, followed by addition of indicated concentrations of compound 3 or TPEN and 10 μM Zinquin for 30 min at 37° C., and the fluorescence count was measured (FIG. 37A). For measurement of chelation of endogenous zinc ions in HT-29 cells, HT-29 cells (1.5×10^6 cells/group) were treated with indicated concentrations of compound 3 and 10 μM Zinquin for 30 min at 37° C., and the fluorescence count was measured (FIG. 37B).

[18] = test system: metallothionein 1A (MT1A); test: Metallothionein 1A (MT1A) mRNA expression in HT-29 cells, real time PCR; format: cell-based, human; settings: HT-29, versus DMSO control, in words
Method: as §3
The effect of compound 3 and compound 7 treatment on the expressions of a zinc-storage protein meallothionein 1A (MT1A) (FIG. 29A), a copper transporter, Ctrl also known as SLC31A1 (FIG. 29B) and an iron transporter; transferrin receptor 1 (TfR1) (FIG. 29C) were measured and compared with a known zinc chelator TPEN, a copper chelator tetramine and an iron chelator DFO, respectively. Despite in vitro chelation of Cu^+2, increase in copper-sensitive gene after compound 3 treatment was transient.
HT-29 cells were treated with 1 μM compound 3 for the indicated time and MT1A gene expression was measured as follows. Total RNA was extracted using TRIZOL method and gene expression level was determined by quantitative reverse-transcription polymerase chain reaction (RT-PCR). MT1A gene expression was normalized with β-actin gene expression in the same sample. Fold change in MT1A was expressed relative to MT1A level of DMSO control at respective time points.
To verify that the MT1A gene expression reflected the intracellular zinc level, HT-29 cells were treated with 1 μM compound 3, 35 μM ZnCl2 or compound 3 and ZnCl2 together for 16 hr (FIG. 38B). MT1A gene expression was determined by RT-PCR as described above. MT1A gene expression was elevated in response to increased intracellular zinc ions in ZnCl2-treated cells.
The ability of compounds of Formula I to modulate gene expression of MT1A (FIG. 55A), MTF-1 (FIG. 55B), Cyclin D1 (FIG. 55C) and KLF4 (FIG. 55D) was determined by RT-PCR. HT-29 cells were treated with 1 μM compound 3 or compound 7, 35 μM ZnCl2, compound 3 and ZnCl2 together, or compound 7 and ZnCl2 together for 8 to 16 hr. The respective gene expression was normalized with β-actin gene expression in the same sample. Fold change in gene expression was expressed relative to the respective gene level of DMSO control.
The effect of compound 3 and compound 64 on gene expression changes in MT1A (FIG. 57A), MTF-1 (FIG. 57B), Cyclin D1 (FIG. 57C) and KLF4 (FIG. 57D) in HT-29 cells was determined by RT-PCR. HT-29 cells were treated with 1 μM compound 3 or compound 64, 35 μM ZnCl2, compound 3 and ZnCl2 together, or compound 64 and ZnCl2 together for 8 to 16 hr. The respective gene expression was normalized with β-actin gene expression in the same sample. Fold change in gene expression was expressed relative to the respective gene level of DMSO control.

- IC50 (H-460 lung cancer cells): 400 nM
- IC50 ([5]; HT-29, XTT, as Example 13, Table 7): 0.2 µg/mL
- IC50 ([5]; HT-29 colon, Table 8, read-out: IC50 (cell growth inhibition)): 200 nM
- IC50 [6]: 3300 nM
- IC50 (CCRF-CEM leukemia cells): 200 nM
- IC50 [7]: 400 nM
- IC50 (MOLT-4 leukemia cells): 200 nM
- IC50 (SK-MEL-2 melanoma cells): 180 nM
- IC50 [12]: 600 nM
- IC50 [13]: 340 nM
- IC50 [15]: 160 nM
Structure (SMILES): Cc1ccc2[nH]c(C34CC5CC(CC(C5)C3)C4)c(-c3nc4c5cccnc5c5ncccc5c4[nH]3)c2c1 [Compound 69]
- KLF4 (gene fold increase) (KLF4 [1]): 74.29 fold
- KLF4 (gene fold increase) (KLF4 [2]): 1.95 fold
- KLF4 (gene fold increase) (KLF4 [3]): 276.28 fold
- KLF4 (gene fold increase) (KLF4 [4]): 3.11 fold
- KLF4 (gene fold increase) (KLF4 [8]): 1.61 fold
- KLF4 (gene fold increase) (KLF4 [9]): 0.95 fold
- KLF4 (gene fold increase) (KLF4 [10]): 8.91 fold
- KLF4 (gene fold increase) (KLF4 [11]): 7.46 fold
- KLF4 (gene fold increase) (KLF4 [14]): 4 fold
- KLF4 (gene fold increase) (KLF4 [16]): 6.54 fold

Structure (SMILES): c1ccc(CN(CCN(Cc2ccccn2)Cc2ccccn2)Cc2ccccn2)nc1 [TPEN, NNNN-tetrakis(2-pyridyl-methyl)ethylenediamine, reference compound]
- intracellular free zinc (Zinquin fluorescence) [17]: Dose-dependent decrease in both pre-loaded zinc and endogenous zinc levels
- MT1A gene expression, change [18]: decreased the expression of MT1A
